From patent US6461997B1, “Triazole sulfones having herbicidal activity” (Monsanto Technology LLC, priority 1999, dated 2002)

Tests used:
SOLNI (black nightshade) [1] = experiment: Pre-emergence herbicidal activity, warm season; assay type: in vivo, Solanum nigrum
Procedure, shortened: (§1)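 GR80 values derive from percent inhibition relative to untreated plants, read roughly 14 days after sowing and pre-emergence soil-surface treatment (compound in 50:50 acetone/water; rates typically 10, 30, 100, 300 g/ha). Warm-season weeds grew at 30/21° C day/night, cool-season ones at 18/13° C; an asterisk marks activity without reaching 80% at the highest rate.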

AMARE (redroot pigweed) = experiment: Pre-emergence herbicidal activity, warm season; assay type: in vivo, Amaranthus retroflexus
Procedure, shortened: as §1

[2] = tested on: CIRAR (canada thistle (seedling)); experiment: Pre-plant incorporated (PPI) herbicidal activity, warm season; assay type: in vivo, Cirsium arvense; details: GR80 = lowest tested rate with 80% or greater inhibition, approx. 14 days after treating, 30/21° C.
Protocol: (§2) In another set of tests, the pre-plant incorporated (PPI) activity of compounds of this invention was evaluated on the same species as for the pre-emergence tests described above. In the PPI tests the following procedure, designed to simulate PPI application, was used.
(§3) A pre-prepared topsoil mixture (described above) was placed in a pot and compacted to a depth of 1.0 to 1.25 cm from the top of the pot. Seeds of each of several monocotyledonous and dicotyledonous annual plant species were placed on top of the soil. A sufficient quantity of soil to cover the seeds and level fill the pot was weighed into an open container. A known amount of the test compound was dissolved or suspended in an organic solvent and applied by spraying to this cover soil. The cover soil was thoroughly mixed to distribute the test compound throughout the cover soil, and was then applied as a cover layer over the seeds. Untreated soil was used as a cover layer for control pots. After treatment the plants were placed in a greenhouse where they received 0.64 cm of overhead irrigation. All subsequent watering consisted of a light overhead mist and/or subirrigation as needed for germination and growth. Tables 9 and 10 below relate to warm season plant species which were placed after pre-emergence treatment in a greenhouse with a 30/21° C. day/night temperature regime. Tables 11 and 12 below relates to cool season plant species placed after pre-emergence treatment in a greenhouse or growth chamber with an 18/13° C. day/night temperature regime. Only the compounds of Examples 1, 6, 8, 11, 13 and 15-20 were included in PPI tests.
(§4) Approximately 14 days after planting and treating, the plants were observed and herbicidal efficacy recorded as percent inhibition by comparison with untreated plants.

[3] = tested on: CHEAL (common lambsquarters); experiment: as above; assay type: in vivo, Chenopodium album; details: pre-plant incorporated; GR80 = lowest tested rate with 80% or greater inhibition; approx. 14 days after treating; 30/21° C.
Protocol: as §2, §3, §4

AVEFA (wild oat) = experiment: Pre-emergence herbicidal activity, cool season; assay type: in vivo, Avena fatua; details: GR80 = lowest tested rate (300, 100, 30, 10 g/ha) with 80% or greater inhibition; approx. 14 days after treating; 18/13° C.
Procedure, shortened: as §1

POROL (common purslane) [4] = experiment: Pre-plant incorporated (PPI) herbicidal activity, warm season; assay type: in vivo, Portulaca oleracea; details: GR80 = lowest tested rate with 80% or greater inhibition, approx. 14 days after treating, 30/21° C.
Protocol: as §2, §3, §4

POROL (common purslane) [5] = experiment: Pre-emergence herbicidal activity, warm season; assay type: in vivo, Portulaca oleracea; details: GR80 = lowest tested rate (300, 100, 30, 10 g/ha) with 80% or greater inhibition; approx. 14 days after treating; 30/21° C.
Procedure, shortened: as §1

SOLNI (black nightshade) [6] = experiment: Pre-plant incorporated (PPI) herbicidal activity, warm season; assay type: in vivo, Solanum nigrum
Protocol: as §2, §3, §4

[7] = tested on: PANMI (wild proso millet); experiment: as above; assay type: in vivo, Panicum miliaceum
Protocol: as §2, §3, §4

[8] = tested on: GALAP (catchweed bedstraw); experiment: Pre-emergence herbicidal activity, cool season; assay type: in vivo, Galium aparine; details: lowest tested rate with 80% or greater inhibition; rates 300, 100, 30, 10 g/ha; about 14 days
Procedure, shortened: as §1

oilseed rape (BRSNS) = experiment: Selectivity test, PPI, cool season crop; assay type: in vivo, Brassica napus; details: Brassica napus, PPI application, read-out: Percent inhibition BRSNS
Protocol: as §3, §4
Additional pre-emergence and PPI tests were conducted by the procedures described above, on warm and cool season weed species in the presence of crop species, to assess herbicidal selectivity. Crop species included in warm season tests were corn (Zea mays, ZEAMX), rice (Oryza sativa, ORYSA) and soybean (Glycine max, GLYMX). Crop species included in cool season tests were wheat (Triticum aestivum, TRZAW), barley (Hordeunm vulgare, HORVX) and oilseed rape (Brassica napus, BRSNS).
Tables 15 and 16 relate to pre-emergence and PPI tests respectively on warm season species. Table 17 relates to pre-emergence tests on cool season species.

ECHCG (barnyardgrass) = experiment: Pre-emergence herbicidal activity, warm season; assay type: in vivo, Echinochloa crus-galli
Procedure, shortened: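 Activity is expressed as the rate giving 80% inhibition, with 300, 100, 30 and 10 g/ha typically tested. An asterisk marks activity short of 80% at the top rate. Warm-season grasses were held at 30/21 °C; cool-season blackgrass and wild buckwheat at 18/13 °C; scoring at about 14 days.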

[9] = GR80 = lowest tested rate (300, 100, 30, 10 g/ha) with 80% or greater inhibition, approx. 14 days after treating, 30/21° C.

With `CCN(CC)C(=O)n1cnc(S(=O)(=O)C(F)(F)Br)n1` [Example 1, 3-(bromodifluoromethylsulfonyl)-1-(N,N-diethylcarbamoyl)-1,2,4-triazole] the “Pre-emergence activity (GR80) SOLNI” value (SOLNI (black nightshade) [1]; [9]) was 100 g/ha, the inhibition at 10 g/ha (SOLNI (black nightshade) [1]; Solanum nigrum, pre-emergence application, 10 g/ha, read-out: Percent inhibition, weed SOLNI) was 0% and the inhibition at 30 g/ha (SOLNI (black nightshade) [1]; Solanum nigrum, pre-emergence application, 30 g/ha, read-out: Percent inhibition, weed SOLNI) was 0%. It also gave an inhibition at 100 g/ha (SOLNI (black nightshade) [1]; Solanum nigrum, pre-emergence application, 100 g/ha, read-out: Percent inhibition, weed SOLNI) of 0%, an inhibition at 300 g/ha (SOLNI (black nightshade) [1]; Solanum nigrum, pre-emergence application, 300 g/ha, read-out: Percent inhibition, weed SOLNI) of 0% and an inhibition at 900 g/ha (SOLNI (black nightshade) [1]; Solanum nigrum, pre-emergence application, 900 g/ha, read-out: Percent inhibition, weed SOLNI) of 20%. For the same compound, the inhibition at 10 g/ha (AMARE (redroot pigweed); Amaranthus retroflexus, pre-emergence application, 10 g/ha, read-out: Percent inhibition, weed AMARE) was 0%, the inhibition at 30 g/ha (AMARE (redroot pigweed); Amaranthus retroflexus, pre-emergence application, 30 g/ha, read-out: Percent inhibition, weed AMARE) was 0% and the inhibition at 100 g/ha (AMARE (redroot pigweed); Amaranthus retroflexus, pre-emergence application, 100 g/ha, read-out: Percent inhibition, weed AMARE) was 60%. For the same compound, the inhibition at 300 g/ha (AMARE (redroot pigweed); Amaranthus retroflexus, pre-emergence application, 300 g/ha, read-out: Percent inhibition, weed AMARE) was 50%, the inhibition at 900 g/ha (AMARE (redroot pigweed); Amaranthus retroflexus, pre-emergence application, 900 g/ha, read-out: Percent inhibition, weed AMARE) was 90% and the “Pre-emergence activity (GR80) AMARE” value (AMARE (redroot pigweed); [9]) was 30 g/ha. The “PPI activity (GR80) CIRAR” value [2] was 100 g/ha, the “PPI activity (GR80) CHEAL” value [3] was 300 g/ha and the “Pre-emergence activity (GR80) AVEFA” value (AVEFA (wild oat)) was 100 g/ha. For the same compound, the “PPI activity (GR80) POROL” value (POROL (common purslane) [4]) was 30 g/ha, the “Pre-emergence activity (GR80) POROL” value (POROL (common purslane) [5]) was 100 g/ha and the inhibition at 10 g/ha (SOLNI (black nightshade) [6]; Solanum nigrum, PPI application, 10 g/ha, read-out: Percent inhibition SOLNI) was 0%. The inhibition at 30 g/ha (SOLNI (black nightshade) [6]; Solanum nigrum, PPI application, 30 g/ha, read-out: Percent inhibition SOLNI) was 0%, the inhibition at 100 g/ha (SOLNI (black nightshade) [6]; Solanum nigrum, PPI application, 100 g/ha, read-out: Percent inhibition SOLNI) was 0% and the inhibition at 300 g/ha (SOLNI (black nightshade) [6]; Solanum nigrum, PPI application, 300 g/ha, read-out: Percent inhibition SOLNI) was 75%. For the same compound, the inhibition at 900 g/ha (SOLNI (black nightshade) [6]; Solanum nigrum, PPI application, 900 g/ha, read-out: Percent inhibition SOLNI) was 100%, the “PPI activity (GR80) SOLNI” value (SOLNI (black nightshade) [6]; pre-plant incorporated, GR80 = lowest tested rate with 80% or greater inhibition, approx. 14 days after treating, 30/21° C.) was 30 g/ha and the inhibition at 10 g/ha ([7]; Panicum miliaceum, PPI application, 10 g/ha, read-out: Percent inhibition PANMI) was 0%. For the same compound, the inhibition at 30 g/ha ([7]; Panicum miliaceum, PPI application, 30 g/ha, read-out: Percent inhibition PANMI) was 60%, the inhibition at 100 g/ha ([7]; Panicum miliaceum, PPI application, 100 g/ha, read-out: Percent inhibition PANMI) was 99% and the inhibition at 300 g/ha ([7]; Panicum miliaceum, PPI application, 300 g/ha, read-out: Percent inhibition PANMI) was 100%. The inhibition at 900 g/ha ([7]; Panicum miliaceum, PPI application, 900 g/ha, read-out: Percent inhibition PANMI) was 100%, the “PPI activity GR80, PANMI” value ([7]; pre-plant incorporated, lowest tested rate with 80% or greater inhibition, about 14 days) was 30 g/ha and the “Pre-emergence activity GR80, GALAP” value [8] was 100 g/ha. For the same compound, the inhibition at 30 g/ha (oilseed rape (BRSNS); 30 g/ha) was 60%, the inhibition at 100 g/ha (oilseed rape (BRSNS); 100 g/ha) was 20% and the inhibition at 300 g/ha (oilseed rape (BRSNS); 300 g/ha) was 99%. For the same compound, the inhibition at 900 g/ha (oilseed rape (BRSNS); 900 g/ha) was 100%, the inhibition at 10 g/ha (ECHCG (barnyardgrass); Echinochloa crus-galli, pre-emergence application, 10 g/ha, read-out: Percent inhibition, weed ECHCG) was 0% and the inhibition at 30 g/ha (ECHCG (barnyardgrass); Echinochloa crus-galli, pre-emergence application, 30 g/ha, read-out: Percent inhibition, weed ECHCG) was 10%. For the same compound, the inhibition at 100 g/ha (ECHCG (barnyardgrass); Echinochloa crus-galli, pre-emergence application, 100 g/ha, read-out: Percent inhibition, weed ECHCG) was 45%, the inhibition at 300 g/ha (ECHCG (barnyardgrass); Echinochloa crus-galli, pre-emergence application, 300 g/ha, read-out: Percent inhibition, weed ECHCG) was 80% and the inhibition at 900 g/ha (ECHCG (barnyardgrass); Echinochloa crus-galli, pre-emergence application, 900 g/ha, read-out: Percent inhibition, weed ECHCG) was 95%. For the same compound, the “Pre-emergence activity (GR80) ECHCG” value (ECHCG (barnyardgrass); [9]) was 30 g/ha.
